Measured values from patent US6262073A, “Pharmaceutical methods of use of 5-substituted and 5,5 disubstituted-3,4-dihydroxy-2(5H)-furanones” (Oxis International Inc., priority 2000, dated 2001).

molecular target: T1, Cyclooxygenase-1 (cyclooxygenase from ram seminal vesicles) (Ovis aries, UniProt P05979); assay: Cyclooxygenase-1 screen (COX-1); type: biochemical; details: 300 μM
T1 construct: cyclooxygenase from ram seminal vesicles; from tissue; host or cells: ram seminal vesicles
T1 sequence (P05979 25-600): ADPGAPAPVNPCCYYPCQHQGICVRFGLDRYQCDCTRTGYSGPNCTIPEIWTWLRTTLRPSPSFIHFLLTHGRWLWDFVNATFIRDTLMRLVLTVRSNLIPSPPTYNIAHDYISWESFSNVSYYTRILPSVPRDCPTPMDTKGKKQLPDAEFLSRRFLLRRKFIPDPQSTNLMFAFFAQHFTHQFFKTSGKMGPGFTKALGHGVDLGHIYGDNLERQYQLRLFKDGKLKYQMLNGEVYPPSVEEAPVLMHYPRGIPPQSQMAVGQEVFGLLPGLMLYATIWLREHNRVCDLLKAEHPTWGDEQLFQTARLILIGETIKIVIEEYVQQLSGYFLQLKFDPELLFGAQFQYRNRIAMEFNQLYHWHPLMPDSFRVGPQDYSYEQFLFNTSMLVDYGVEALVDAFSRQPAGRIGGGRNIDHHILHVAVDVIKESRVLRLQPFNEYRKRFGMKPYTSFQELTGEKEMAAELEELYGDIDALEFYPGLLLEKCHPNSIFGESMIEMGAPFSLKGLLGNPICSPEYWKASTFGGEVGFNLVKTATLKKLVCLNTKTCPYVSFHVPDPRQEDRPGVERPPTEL
Description: (§1) The compounds of the invention were screened for their anti-inflammatory activity using a series of in vitro tests the details of which are given below. The activity of various compounds against 5-lipoxygenase, cycloxygenase-1, cycloxygenase-2 and lipid peroxidase was evaluated. Results of the screening procedures are included in TABLE I, and the activity against 5-lipoxygenase at a test concentration of 1 μM in Table II.
Cyclooxygenase-1 is involved in the formation of prostaglandins and thromboxane via the oxidative metabolism of arachidonic acid. Briefly, cyclooxygenase from ram seminal vesicles is incubated with arachidonic acid (100 μm) for 2 minutes at 37° C. in the presence or absence of test compounds according to the methods of A. T. Evans et al., Biochem. Pharm. 36:2035-2037(1987) and R. Boopathy et al., Biochem J. 239:371-377 (1968). The assay is terminated by the addition of trichioroacetic acid and cyclooxygenase activity is determined by reading the absorbance at 530 nm. […]

First: CC(C)CC1(c2ccc(-c3ccccc3)cc2)OC(=O)C(O)=C1O (stereo not shown) [Example 6, 5-[(1,1'-Biphenyl)-4-yl]-3,4-dihydroxy-5-(2-methylpropyl)-2(5H)-furanone]
Second: C[C@]1(c2ccc(-c3ccccc3)cc2)OC(=O)C(O)=C1O [Example 12, (R)-(-)-5-[(1,1'-Biphenyl)-4-yl]-3,4-dihydroxy-5-methyl-2(5H)-furanone]
The COX-1 percent inhibition of the first is higher: 67% for the first, 10% for the second.

molecular target: T2, Cyclooxygenase-2 (prostaglandin H synthetase-2) from sheep placenta (Ovis aries, UniProt P79208); assay: Cyclooxygenase-2 screen (COX-2); type: biochemical; details: read-out: COX-2 percent inhibition
T2 construct: cyclooxygenase-2 from sheep placenta; from tissue; host or cells: sheep placenta
T2 sequence (P79208 17-603): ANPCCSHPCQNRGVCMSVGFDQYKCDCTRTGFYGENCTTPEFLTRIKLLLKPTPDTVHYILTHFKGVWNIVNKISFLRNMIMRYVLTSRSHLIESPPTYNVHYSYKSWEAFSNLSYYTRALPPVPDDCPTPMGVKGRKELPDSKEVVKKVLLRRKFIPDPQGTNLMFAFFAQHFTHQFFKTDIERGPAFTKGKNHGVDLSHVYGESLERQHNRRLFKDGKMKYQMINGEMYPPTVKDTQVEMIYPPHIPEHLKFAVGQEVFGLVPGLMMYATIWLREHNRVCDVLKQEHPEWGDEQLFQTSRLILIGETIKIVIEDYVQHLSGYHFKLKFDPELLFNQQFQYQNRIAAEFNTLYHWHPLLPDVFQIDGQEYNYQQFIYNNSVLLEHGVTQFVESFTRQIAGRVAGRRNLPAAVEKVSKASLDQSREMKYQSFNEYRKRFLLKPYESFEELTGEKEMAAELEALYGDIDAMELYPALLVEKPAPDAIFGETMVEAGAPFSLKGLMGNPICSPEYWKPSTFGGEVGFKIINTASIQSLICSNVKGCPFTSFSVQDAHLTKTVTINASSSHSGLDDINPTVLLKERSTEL
Description: as §1
Cyclooxygenase-2, also known as prostaglandin H synthetase-2, catalyzes the rate- limiting step in the synthesis of inflammatory prostaglandins. In this reaction cyclooxygenase-2 catalyzes the oxygenation of unesterified precursors to form cyclic endoperoxide derivatives, including prostaglandin H. Briefly, cyclooxygenase-2 from sheep placenta, 14 μg/assay tube, is incubated with arachidonic acid (500 μM) for 1.5 minutes at 27° C. in the absence or presence of test compounds according to the methods of A. T. Evans, et al., Biochem Pharm. […] Res. Comm. […] Compounds are screened at 300 μM.

First: CC(C)CC1(c2ccc(-c3ccccc3)cc2)OC(=O)C(O)=C1O (stereo not shown) [Example 6, 5-[(1,1'-Biphenyl)-4-yl]-3,4-dihydroxy-5-(2-methylpropyl)-2(5H)-furanone]
Second: C[C@]1(c2ccc(-c3ccccc3)cc2)OC(=O)C(O)=C1O [Example 12, (R)-(-)-5-[(1,1'-Biphenyl)-4-yl]-3,4-dihydroxy-5-methyl-2(5H)-furanone]
The inhibition at 300 µM of the first is higher: 46% for the first, 12% for the second.

molecular target: T3, 5-Lipoxygenase (crude enzyme preparation from rat basophilic leukemia cells, RBL-1) (Rattus norvegicus, UniProt P12527); assay: 5-Lipoxygenase screen (5-LO), 5-HETE by RIA; type: biochemical; details: 30 μM; read-out: 5-LO percent inhibition
T3 construct: crude enzyme preparation from rat basophilic leukemia cells (RBL-1); endogenous in cells; host or cells: rat basophilic leukemia cells (RBL-1)
T3 sequence (P12527 1-673): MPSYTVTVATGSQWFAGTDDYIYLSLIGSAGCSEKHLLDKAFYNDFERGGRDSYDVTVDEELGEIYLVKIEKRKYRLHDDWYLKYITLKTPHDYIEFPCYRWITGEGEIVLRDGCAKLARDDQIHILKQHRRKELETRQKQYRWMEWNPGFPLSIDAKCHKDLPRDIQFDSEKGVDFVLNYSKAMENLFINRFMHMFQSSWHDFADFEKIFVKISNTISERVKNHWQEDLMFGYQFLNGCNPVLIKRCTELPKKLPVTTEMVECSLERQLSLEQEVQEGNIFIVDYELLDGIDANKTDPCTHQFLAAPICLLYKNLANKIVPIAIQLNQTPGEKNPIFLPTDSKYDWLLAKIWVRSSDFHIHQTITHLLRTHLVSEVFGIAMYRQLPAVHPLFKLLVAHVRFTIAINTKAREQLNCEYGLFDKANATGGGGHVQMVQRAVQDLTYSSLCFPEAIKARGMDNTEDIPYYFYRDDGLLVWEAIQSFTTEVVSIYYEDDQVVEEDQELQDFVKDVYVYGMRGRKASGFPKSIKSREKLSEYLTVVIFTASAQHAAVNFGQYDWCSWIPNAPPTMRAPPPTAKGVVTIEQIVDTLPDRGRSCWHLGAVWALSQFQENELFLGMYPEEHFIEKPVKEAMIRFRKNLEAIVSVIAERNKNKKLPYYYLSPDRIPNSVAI
Description: as §1
5-Lipoxygenase catalyzes the oxidative metabolism of arachidonic acid to […] (5-HETE), the initial reaction leading to the formation of the leukotrienes. Briefly, the testing procedure utilizes a crude enzyme preparation from rat basophilic leukemia cells (RBL-1) according to the methods of T. Shimuzu et al. Pro. […] Test compounds are pre-incubated with the enzyme preparation for 5 minutes at room temperature and the reaction is initiated by the addition of arachidonic acid. Following an 8 minute incubation at room temperature, the reaction is terminated by the addition of citric acid and concentrations of 5-HETE are determined by RIA. Compounds are screened at 30 μM.

First: CC(C)CC1(c2ccc(-c3ccccc3)cc2)OC(=O)C(O)=C1O (stereo not shown) [Example 6, 5-[(1,1'-Biphenyl)-4-yl]-3,4-dihydroxy-5-(2-methylpropyl)-2(5H)-furanone]
Second: C[C@]1(c2ccc(-c3ccccc3)cc2)OC(=O)C(O)=C1O [Example 12, (R)-(-)-5-[(1,1'-Biphenyl)-4-yl]-3,4-dihydroxy-5-methyl-2(5H)-furanone]
The inhibition at 30 µM of the first is lower: 96% for the first, 101% for the second.

same assay, conditions: read-out: Percent inhibition of 5-LO; test conc. 1 μM (Table II)

First: CC(C)CC1(c2ccc(-c3ccccc3)cc2)OC(=O)C(O)=C1O (stereo not shown) [Example 6, 5-[(1,1'-Biphenyl)-4-yl]-3,4-dihydroxy-5-(2-methylpropyl)-2(5H)-furanone]
Second: C[C@]1(c2ccc(-c3ccccc3)cc2)OC(=O)C(O)=C1O [Example 12, (R)-(-)-5-[(1,1'-Biphenyl)-4-yl]-3,4-dihydroxy-5-methyl-2(5H)-furanone]
The inhibition at 1 µM of the first is higher: 70% for the first, 60% for the second.

test system: Lipid peroxidation (rat liver microsomes); assay: Lipid peroxidation screen (LPO), CCl4-induced, liver microsomes; type: biochemical; details: 300 μM
Description: as §1
Lipid peroxidation is a consequence of various stimuli, including reactive free radicals. Polyunsaturated fatty acids associated with plasma membranes are degraded due to enzymatic induction by reactive agents such as CCl4, leading to cellular damage. Briefly, microsomes are prepared from rat livers and the protein concentration is determined according to the method of D. Mansuy et al., Biochem. Biophys. Res. Comm. 135:1015-1021(1986). A reaction mixture consisting of 2 mg of the microsomal preparation, an NADPH generating system, 20 mM CCl4 and test compound are incubated for 12 minutes at 37° C. The reaction is terminated by the addition of a mixture of thiobarbituric acid and trichloroacetic acid. The absorbance is read at 535 nm and is proportional to the concentration of malondialdehyde. Compounds are screened at 300 μM.

Compared with `CC(C)CC1(c2ccc(-c3ccccc3)cc2)OC(=O)C(O)=C1O` (stereo not shown) [Example 6, 5-[(1,1'-Biphenyl)-4-yl]-3,4-dihydroxy-5-(2-methylpropyl)-2(5H)-furanone], `C[C@]1(c2ccc(-c3ccccc3)cc2)OC(=O)C(O)=C1O` [Example 12, (R)-(-)-5-[(1,1'-Biphenyl)-4-yl]-3,4-dihydroxy-5-methyl-2(5H)-furanone] is lower in LPO percent inhibition: 82% for the first, 62% for the second.

test system: NF-κB; assay: NF-κB nuclear membrane translocation, EMSA, LPS-treated NR8383 cells; type: cell-based; details: Rattus norvegicus, 6 h, read-out: % Inhibition (NF-κB nuclear translocation)
Description: Experiments measuring test agents effect on NF-κB nuclear membrane translocation were performed with NR8383 cells, which are transformed rat alveolar macrophages. […] In addition, some compounds were tested at doses of 10 and 30 μM. Untreated control cells and cells treated with LPS alone were tested in each experiment. Cells were harvested 6 hours after treatment. Nuclear proteins were extracted, frozen and quantified using the Bradford assay. Electrophoretic mobility shift assays (EMSA) were subsequently analyzed using a radiolabeled NF-κB probe. Nuclear proteins were reacted with the radiolabeled probe, run on a 5% polyacrylamide gel, and subjected to autoradiography. Specificity of protein binding for the NF-κB binding site was assayed by cold and nonspecific competition using the LPS treated sample in each experiment. All EMSA were duplicated at least once to verify results. Laser densitometry of NF-κB bands was done on autoradiographs to quantify NF-κB binding activity.

For `C[C@@H]1C[C@H]2[C@@H]3CCC4=CC(=O)C=C[C@]4(C)[C@@]3(F)[C@@H](O)C[C@]2(C)[C@@]1(O)C(=O)CO` [Dexamethasone], the inhibition at 1 µM was 60%.

test system: Nuclear Factor-kappa B (NF-κB); assay: NF-κB lacZ (κB-Z) reporter assay in transfected Jurkat cells stimulated with A23187 and PMA; type: cell-based, human; details: Homo sapiens; 10 μM; κB-Z Jurkat cells, A23187 and PMA (Table III); read-out: NF-κB percent inhibition
Description: The human T lymphoid cell line Jurkat was transfected with a response element lacZ reporter in which transcription of the β-galactosidase gene is directed by the binding site for the NF-κB transcription factor. […] At the end of the incubation, the cells are spun down and resuspended in the buffer and FDG (fluorescein di-β-D-galactopyranoside) solution. The covered plates are further incubated in the dark for 16 hours at 25° C. […] Compounds were screened at 10 μM.

Compared with `CC(C)CC1(c2ccc(-c3ccccc3)cc2)OC(=O)C(O)=C1O` (stereo not shown) [Example 6, 5-[(1,1'-Biphenyl)-4-yl]-3,4-dihydroxy-5-(2-methylpropyl)-2(5H)-furanone], `C[C@]1(c2ccc(-c3ccccc3)cc2)OC(=O)C(O)=C1O` [Example 12, (R)-(-)-5-[(1,1'-Biphenyl)-4-yl]-3,4-dihydroxy-5-methyl-2(5H)-furanone] is lower in inhibition at 10 µM: 59% for the first, 56% for the second.
